Measurements published in US11415579B2, “Assay for measuring a rate of reaction between a target and a ligand candidate” (Imperial College Innovations Ltd., priority 2016, dated 2022).

Legend:
[1] = Kinetic thiol consumption assay with model thiol glutathione; assay type: physicochemical; set-up: Rate constant with glutathione (k(GSH)): unit not given here; conditions: for Rate constant with glutathione (k(GSH)): 500 μM ligand, 5 μM thiol, phosphate buffer pH 8; for Rate constant with Glutathione: Protein: Glutathione, cysteine position NA, in h-1
In short: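 Rate constants for acrylamide reaction with 5 μM glutathione come from first-order exponential fits of normalized fluorescence decay (ex 380, em 470 nm). Reactions run in degassed phosphate buffer at pH 8 containing TCEP beads, room temperature.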

[2] = target: T1, human cyclin-dependent kinase 2 (Cdk2) (Homo sapiens, UniProt P24941); experiment: Kinetic thiol consumption assay with wild type Cdk2 (C177); assay type: binding; set-up: key to Rate enhancement, Cdk2 WT: k(Cdk2) divided by k(model thiol); Rate constant with Cdk2 (k(Cdk2)): unit not given here; conditions: for Rate constant with Cdk2 (k(Cdk2)): 500 μM ligand, 5 μM thiol, phosphate buffer pH 8; for Rate enhancement, Cdk2 WT: no additional mutations; for Rate constant with Cdk2 WT: Protein: Cdk2, cysteine position WT, in h^-1; for k(Cdk2)/k(Cdk2_mut) rate enhancement: model thiol Cdk2[C177A, F80C, K278C]; for k(Cdk2)/k(GSH) rate enhancement: model thiol glutathione
T1 construct: poly-histidine; made in house; host or cells: E. coli
In short: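 His-tagged human Cdk2 (single surface cysteine C177), expressed in E. coli, or a model thiol at 5 μM in degassed phosphate buffer pH 8 was pre-treated with immobilized TCEP beads (2% v/v) before acrylamide addition. Fluorescence (ex/em 380/470 nm) was read after 1 h at room temperature, normalized to DMSO/thiol-only control and plotted versus time.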

Cdk2[C177A, F80C, K278C] = target: T2, Cdk2[C177A, F80C, K278C] (Homo sapiens, UniProt P24941, C177A/F80C/K278C); experiment: Kinetic thiol consumption assay with mutant Cdk2 as model thiol; assay type: binding; set-up: unit not given here; conditions: 500 μM ligand, 5 μM thiol, phosphate buffer pH 8
T2 construct: poly-histidine; made in house; host or cells: E. coli
In short: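 First-order rate constants were derived by exponential-decay fitting of DMSO/thiol-normalized fluorescence (380/470 nm) over time at room temperature. Thiol was 5 μM E. coli-expressed His-tagged Cdk2 mutant C177A/F80C/K278C in degassed pH 8 phosphate buffer containing 2% v/v TCEP beads.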

Cdk2(C177A, F80C) = target: T3, Cdk2(C177A, F80C) (Homo sapiens, UniProt P24941, C177A/F80C); experiment: Kinetic thiol consumption assay with Cdk2 mutant F80C, incl. kobs versus concentration (Kd, k2); assay type: binding; set-up: key to Rate enhancement, Cdk2 F80C: Cdk2 rate constant divided by model-thiol rate constant; conditions: additional mutation C177A; for Rate constant with Cdk2 F80C: Protein: Cdk2, cysteine position F80C, in h^-1
T3 construct: poly-histidine; made in house; host or cells: E. coli
In short: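 His-tagged Cdk2(C177A/F80C) from E. coli or model thiol, 5 μM in degassed phosphate buffer pH 8 with TCEP beads, reacted with acrylamide ligands; fluorescence (ex/em 380/470 nm) normalized to DMSO control and fitted to first-order decay for kobs. Kd and k2 obtained from hyperbolic fit of kobs versus ligand concentration.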

Cdk2(H71C) (C177A) = target: T4, Cdk2(H71C) (C177A) (Homo sapiens, UniProt P24941, C177A/H71C); experiment: Kinetic thiol consumption assay with Cdk2 mutant H71C; assay type: binding; set-up: key to Rate enhancement, Cdk2 H71C: rate constant with Cdk2 ÷ rate constant with model thiol (fold); conditions: additional mutation C177A; for Rate constant with Cdk2 H71C: Protein: Cdk2, cysteine position H71C, in h^-1
T4 construct: poly-histidine; made in house; host or cells: E. coli
In short: (§1)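 Thiol consumption was monitored kinetically using 5 μM Cdk2 (C177A plus one introduced cysteine) in degassed phosphate buffer at pH 8 with TCEP beads. Plates were kept 1 h at room temperature before fluorescence reading, and rate constants came from exponential decay fitting.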

Cdk2(S276C) (C177A) = target: T5, Cdk2(S276C) (C177A) (Homo sapiens, UniProt P24941, C177A/S276C); experiment: Kinetic thiol consumption assay with Cdk2 mutant S276C; assay type: binding; set-up: key to Rate enhancement, Cdk2 S276C: rate constant with Cdk2 ÷ rate constant with model thiol (fold); conditions: additional mutation C177A; for Rate constant with Cdk2 S276C: Protein: Cdk2, cysteine position S276C, in h^-1
T5 construct: poly-histidine; made in house; host or cells: E. coli
In short: as §1

Cdk2(N272C) (C177A) = target: T6, Cdk2(N272C) (C177A) (Homo sapiens, UniProt P24941, C177A/N272C); experiment: Kinetic thiol consumption assay with Cdk2 mutant N272C; assay type: binding; set-up: key to Rate enhancement, Cdk2 N272: rate constant with Cdk2 ÷ rate constant with model thiol (fold); conditions: for Rate enhancement, Cdk2 N272: Cdk2 N272, additional mutation C177A; for Rate constant with Cdk2 N272C: Protein: Cdk2, cysteine position N272C, additional mutation C177A, in h^-1
T6 construct: poly-histidine; made in house; host or cells: E. coli
In short: as §1

Cdk2(T182C) (C177A) = target: T7, Cdk2(T182C) (C177A) (Homo sapiens, UniProt P24941, C177A/T182C); experiment: Kinetic thiol consumption assay with Cdk2 mutant T182C; assay type: binding; set-up: key to Rate enhancement, Cdk2 T182C: rate constant with Cdk2 ÷ rate constant with model thiol (fold); conditions: additional mutation C177A; for Rate constant with Cdk2 T182C: Protein: Cdk2, cysteine position T182C, in h^-1
T7 construct: poly-histidine; made in house; host or cells: E. coli
In short: as §1

Cdk2(R122C) (C177A) = target: T8, Cdk2(R122C) (C177A) (Homo sapiens, UniProt P24941, C177A/R122C); experiment: Kinetic thiol consumption assay with Cdk2 mutant R122C; assay type: binding; set-up: key to Rate enhancement, Cdk2 R122C: rate constant with Cdk2 ÷ rate constant with model thiol (fold); conditions: additional mutation C177A; for Rate constant with Cdk2 R122C: Protein: Cdk2, cysteine position R122C, in h-1
T8 construct: poly-histidine; made in house; host or cells: E. coli
In short: as §1

Cdk2(S181C) (C177A) = target: T9, Cdk2(S181C) (C177A) (Homo sapiens, UniProt P24941, C177A/S181C); experiment: Kinetic thiol consumption assay with Cdk2 mutant S181C; assay type: binding; set-up: key to Rate enhancement, Cdk2 S181C: rate constant with Cdk2 ÷ rate constant with model thiol (fold); conditions: additional mutation C177A; for Rate constant with Cdk2 S181C: Protein: Cdk2, cysteine position S181C, in h^-1
T9 construct: poly-histidine; made in house; host or cells: E. coli
In short: as §1

Row | Rate constant with Cdk2 (k(Cdk2)) [2] | Rate enhancement, Cdk2 WT [2] | Rate constant with Cdk2 WT [2] | k(Cdk2)/k(Cdk2_mut) rate enhancement [2] | k(Cdk2)/k(GSH) rate enhancement [2] | Rate constant with Cdk2[C177A, F80C, K278C] (k(Cdk2_mut)) (Cdk2[C177A, F80C, K278C]) | Rate enhancement, Cdk2 F80C (Cdk2(C177A, F80C)) | Rate constant with Cdk2 F80C (Cdk2(C177A, F80C)) | Rate enhancement, Cdk2 H71C (Cdk2(H71C) (C177A)) | Rate constant with Cdk2 H71C (Cdk2(H71C) (C177A)) | Rate enhancement, Cdk2 S276C (Cdk2(S276C) (C177A)) | Rate constant with Cdk2 S276C (Cdk2(S276C) (C177A)) | Rate enhancement, Cdk2 N272 (Cdk2(N272C) (C177A)) | Rate enhancement, Cdk2 T182C (Cdk2(T182C) (C177A)) | Rate constant with Cdk2 T182C (Cdk2(T182C) (C177A)) | Rate enhancement, Cdk2 R122C (Cdk2(R122C) (C177A)) | Rate constant with Cdk2 R122C (Cdk2(R122C) (C177A)) | Rate enhancement, Cdk2 S181C (Cdk2(S181C) (C177A)) | Compound | Rate constant with glutathione (k(GSH)) [1] | Rate constant with Glutathione [1] | also measured
1 | 0.09635 | 1.855 | 0.09635 | 0.2318 | 1.877 | 0.4157 | 3.888 | 0.202 | 0.317 | 0.01647 | 0.9852 | 0.05118 | 0.4189 | 5.8 | 0.3013 | 0.6897 | 0.03583 | 2.504 | C=CC(=O)Nc1cccc2ncccc12 [CA-012] | 0.05132 | 0.05195 | Rate constant with Cdk2 N272C (Cdk2(N272C) (C177A)): 0.02176; Rate constant with Cdk2 S181C (Cdk2(S181C) (C177A)): 0.1301
2 | 0.00097 | 0.2251 | 0.000968 | 0.177 | 0.226 | 0.00547 | 2.22 | 0.009547 | 1.165 | 0.005009 | 1 | 0.004301 | 1.415 | 13.66 | 0.05877 | 1.018 | 0.004377 | 14.88 | C=CC(=O)N1C(C(=O)c2ccccc2)C1c1ccccc1 (stereo not drawn) [CA-53] | 0.00428 | 0.004301 | Rate constant with Cdk2 N272C (Cdk2(N272C) (C177A)): 0.006086; Rate constant with Cdk2 S181C (Cdk2(S181C) (C177A)): 0.06402
3 | 0.0019 | 1.86 | 0.002863 | 1.136 | 1.213 | 0.00167 | 0.6901 | 0.001062 | 2.5393E−11 | 3.908E−14 | 0.7693 | 0.001184 | 1.006 | 0.679 | 0.001045 | 0.125 | 0.0001923 | 1.1306E−11 | C=CC(=O)NCc1ccc(F)cc1 [BN-62] | 0.00157 | 0.001539 | Rate constant with Cdk2 N272C (Cdk2(N272C) (C177A)): 0.001549; Rate constant with Cdk2 S181C (Cdk2(S181C) (C177A)): 1.74E−14
4 | 0.00196 | 0.2573 | 0.003412 | 0.3873 | 0.2651 | 0.00507 | 1.271 | 0.01686 | 0.5753 | 0.007628 | 1.327 | 0.0176 | 0.4207 | 4.072 | 0.05399 | 0.311 | 0.004124 | 0.776 | C=CC(=O)N1CCC2(CCCCCC2)C1 [CA-093] | 0.0074 | 0.01326 | Rate constant with Cdk2 N272C (Cdk2(N272C) (C177A)): 0.005578; Rate constant with Cdk2 S181C (Cdk2(S181C) (C177A)): 0.01029
5 | 0.0009 | 0.3449 | 0.001449 | 0.131 | 0.3555 | 0.00688 | 3.249 | 0.01365 | 0.8572 | 0.003601 | 0.716 | 0.003008 | 0 | 1.377 | 0.005783 | 0.532 | 0.002235 | 0.5058 | C=CC(=O)NCCc1c[nH]c2ccccc12 [EL-1174] | 0.00253 | 0.004201 | Rate constant with Cdk2 S181C (Cdk2(S181C) (C177A)): 0.002125
6 | 0.2034 | 4.336 | 0.2034 | 9.903 | 4.414 | 0.02054 | 1.909 | 0.08953 | 3.475 | 0.163 | 3.061 | 0.1436 | 4.344 | 16.71 | 0.784 | 0.4622 | 0.02168 | 0.5754 | C=CC(=O)N1CC(CCN2CCCC2=O)c2ccccc21 (stereo not drawn) [CA-089] | 0.04608 | 0.04691 | hit classification, Example 2 ([2]; significant rate enhancement against both model thiols (GSH and mutant Cdk2)): hits; Rate constant with Cdk2 N272C (Cdk2(N272C) (C177A)): 0.2038; Rate constant with Cdk2 S181C (Cdk2(S181C) (C177A)): 0.02699
